According to PMC7179022, “Carvacrol Prodrugs with Antimicrobial Activity Loaded on Clay Nanocomposites” (Materials, 2020):
≈ marks a conversion by molar mass, not a printed value.

Legend:
[1] = In vitro release studies of WSCP1-3 loaded-VHS in a dissolution tester; assay type: physicochemical; settings: 37 °C, from prodrug-VHS nanohybrid
Experimental: Release studies were conducted in a dissolution tester (Sotax AT7, SOTAX Group, Aesch, Switzerland). […] During the test, temperature was maintained constant at 37 °C and agitation was achieved using a paddle system set to 100 rpm. At predetermined time intervals, 5 mL of dissolution medium was withdrawn, filtered with 0.45 μm Millipore^© membranes, and replaced with an equal volume of the corresponding fresh dissolution medium. […] Va is the volume picked up; and Ci is the concentration of drug at time i.

[2] = Chemical conversion of carvacrol prodrugs to carvacrol in water and buffer solutions (HPLC); assay type: physicochemical; settings: 37 °C, 1 mg/mL, mean (±SD) of three experiments
Experimental: We removed 400 μL samples at various time intervals and drug concentrations were analyzed by high performance liquid chromatography (HPLC) using an Agilent 1260 Infinity II HPLC (Agilent, Santa Clara, CA, USA) consisting of quaternary pump, autosampler, column oven, and UV-Vis diode-array detector. Samples were run in an Agilent Poroshell 120 EC-C18 column (4 μm, 4.60 × 150 mm; Agilent, Santa Clara, CA, USA) maintained at 25 °C. The mobile phase consisted of a mixture 50:50 v/v H2O MilliQ (Merck KGaA, Darmstadt, Germany) and CH3CN with 0.1% trifluoracetic acid (TFA) flushing at an isocratic flow rate of 1 mL/min. The detector was set at a wavelength of 270 nm. Data were processed using LC Open LAB HPLC 1260 software (Agilent, Santa Clara, CA, USA). Results are reported as relative difference (RD%) of prodrugs conversion, calculated with Equation (1):(1) RD%=Ci− Cf/Ci ×100 where Ci is the prodrug concentration at zero time point and Cf is the prodrug concentration at the end of incubation.

[3] = set-up: method as in PMID 16869897, PMID 31284397; settings: cited from earlier work
[4] = cited from earlier work
[5] = acid pH (0.1 M HCl, pH 1.2), 120 min
[6] = pH 6.8 phosphate buffer, 240 min

| Compound | amount of prodrug released from VHS [1, 5] | amount of prodrug released from VHS [1, 6] | pseudo-first-order dissociation rate constant Kobs ([2]; pH 6.8 buffer) | pseudo-first-order dissociation rate constant Kobs ([2]; pH 7.4 buffer) | octanol/water partition coefficient (logP o/w) [3] | water solubility [4] |
| --- | --- | --- | --- | --- | --- | --- |
| Cc1ccc(C(C)C)cc1OC(=O)CCN [WSCP3] | 45% | 44% | 0.0381 (±0.0002) h^−1 | 0.0420 (±0.0006) h^−1 | – | – |
| Cc1ccc(C(C)C)cc1OC(=O)CN [WSCP1] | 38% | 65% | 0.2982 (±0.0106) h^−1 | – | – | – |
| Cc1ccc(C(C)C)cc1O [carvacrol, 2-methyl-5-isopropylphenol] | – | – | – | – | 3.64 | 0.11 mg/mL (≈ 732 µM) |
| Cc1ccc(C(C)C)cc1OC(=O)[C@@H](C)N [WSCP2] | 54% | 78% | 0.9027 (±0.0042) h^−1 | 0.7878 (±0.0629) h^−1 | – | – |
